26 molecules from US20250179032A1, “HETEROCYCLIC INHIBITORS OF GLUT9 FOR TREATMENT OF DISEASE” (HORIZON THERAPEUTICS IRELAND DAC, priority 2022, published 2025) can be followed below.

A word on the IC50: it is the concentration needed to halve the response being measured.

One assay has as its target T1, H. sapiens SLC2A9 variant 2 (GLUT9B) (Homo sapiens, UniProt Q9NRM0).
T1 sequence (Q9NRM0 1-511 isoform Q9NRM0-2): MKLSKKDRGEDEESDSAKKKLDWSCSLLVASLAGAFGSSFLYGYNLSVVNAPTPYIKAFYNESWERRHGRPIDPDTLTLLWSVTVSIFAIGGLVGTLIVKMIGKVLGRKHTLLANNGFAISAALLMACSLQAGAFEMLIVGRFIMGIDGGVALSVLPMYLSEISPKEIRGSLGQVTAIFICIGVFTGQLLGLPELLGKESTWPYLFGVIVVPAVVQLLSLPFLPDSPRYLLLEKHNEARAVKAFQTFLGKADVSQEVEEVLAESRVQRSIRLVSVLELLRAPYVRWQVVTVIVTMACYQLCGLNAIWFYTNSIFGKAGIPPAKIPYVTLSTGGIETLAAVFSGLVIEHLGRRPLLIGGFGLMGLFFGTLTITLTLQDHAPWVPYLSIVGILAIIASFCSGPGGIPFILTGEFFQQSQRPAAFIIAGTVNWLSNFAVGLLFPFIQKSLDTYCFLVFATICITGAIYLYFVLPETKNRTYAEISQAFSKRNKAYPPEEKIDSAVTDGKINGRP
Put plainly: GLUT9 functional assay: uric acid uptake in HEK293T cells, allantoin formation by MS/MS as proxy of GLUT9B inhibition. In kind it is cell-based. The settings on record: 15 minute assay; HEK293T cells stably expressing GLUT9B and transiently A. oryzae uricase; uric acid 0.3 mM, 37° C.; read-out: 15 min IC50. Summed up:
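Inhibition of GLUT9B-mediated urate uptake read as reduced allantoin formation, measured by MS/MS against allantoin standards in HEK293T matrix with log-logistic fitting. Stable GLUT9B HEK293T cells carrying transfected A. oryzae uricase were incubated 15 or 60 min at 37° C with uric acid at Km (0.3 mM), pH 7.4 gluconate buffer.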
For the molecule `O=C(O)C1CCN(c2nc(CCC(F)(F)F)cnc2-c2ccc3c(c2)OCCO3)CC1` [Compound 122, 1-(3-(2,3-dihyrobenzo[b][1,4]dioxin-6-yl)-6-(3,3,3-trifluoropropyl)pyrazin-2-yl)piperidine-4-carboxylic acid], the IC50 was 0.5 to 2 µM.

As to `O=C(O)C1CCN(c2nc(CCCC(F)(F)F)cnc2-c2ccc3occc3c2)CC1` [Compound 123, 1-(3-(benzofuran-5-yl)-6-(4,4,4-trifluorobutyl)pyrazin-2-yl)piperidine-4-carboxylic acid], the IC50 is under 0.5 µM.

Turning to `O=C(O)C1CCN(c2nc(CCC(F)(F)C(F)(F)F)cnc2-c2ccc3occc3c2)CC1` [Compound 124, 1-(3-(benzofuran-5-yl)-6-(3,3,4,4,4-pentafluorobutyl)pyrazin-2-yl)piperidine-4-carboxylic acid], the IC50 is under 0.5 µM.

As to `COCCOc1ccc(-c2ncc(CCC(F)(F)C(F)(F)F)nc2N2CCC(C(=O)O)CC2)cc1` [Compound 125, 1-(3-(4-(2-methoxyethoxy)phenyl)-6-(3,3,4,4,4-pentafluorobutyl)pyrazin-2-yl)piperidine-4-carboxylic acid], the IC50 is 0.5 to 2 µM.

For the molecule `O=C(O)C1CCN(c2nc(CCC(F)(F)C(F)(F)F)cnc2-c2ccc3c(c2)OCO3)CC1` [Compound 126, 1-(3-(benzo[d][1,3]dioxol-5-yl)-6-(3,3,4,4,4-pentafluorobutyl)pyrazin-2-yl)piperidine-4-carboxylic acid], the IC50 was under 0.5 µM.

As for `O=C(O)C1CCN(c2nc(CC(C(F)(F)F)C(F)(F)F)cnc2-c2ccc3c(c2)OCO3)CC1` [Compound 127, 1-(3-(benzo[d][1,3]dioxol-5-yl)-6-(3,3,3-trifluoro-2-(trifluoromethyl)propyl)pyrazin-2-yl)piperidine-4-carboxylic acid], the half-maximal inhibitory concentration (IC50) was in the range of 0.5 to 2 µM.

For the molecule `O=C(O)C1CCN(c2nc(CCCC(F)(F)F)cnc2-c2cc(F)c3occc3c2)CC1` [Compound 129, 1-(3-(7-fluorobenzofuran-5-yl)-6-(4,4,4-trifluorobutyl)pyrazin-2-yl)piperidine-4-carboxylic acid], the IC50 was under 0.5 µM.

In the case of `O=C(O)C1CCN(c2nc(CCCCC(F)(F)F)cnc2-c2ccc3occc3c2)CC1` [Compound 130, 1-(3-(benzofuran-5-yl)-6-(5,5,5-Trifluoropentyl)Pyrazin-2-yl)Piperidine-4-carboxylic acid], the IC50 was under 0.5 µM.

As to `O=C(O)C1CCN(c2nc(CCCCC(F)(F)F)cnc2-c2ccc3c(c2)CCO3)CC1` [Compound 131, 1-(3-(2,3-dihydrobenzofuran-5-yl)-6-(5,5,5-trifluoropentyl)pyrazin-2-yl)piperidine-4-carboxylic acid], the IC50 is under 0.5 µM.

On to `O=C(O)C1CCN(c2nc(CCCCC(F)(F)F)cnc2-c2ccc3c(c2)OCO3)CC1` [Compound 132, 1-(3-(benzo[d][1,3]dioxol-5-yl)-6-(5,5,5-trifluoropentyl)pyrazin-2-yl)piperidine-4-carboxylic acid], for which the IC50 is under 0.5 µM.

Regarding `COCCOc1ccc(-c2ncc(CCCCC(F)(F)F)nc2N2CCC(C(=O)O)CC2)cc1` [Compound 133, 1-(3-(4-(2-methoxyethoxy)phenyl)-6-(5,5,5-trifluoropentyl)pyrazin-2-yl)piperidine-4-carboxylic acid], the IC50 was under 0.5 µM.

Take `CC(F)(F)CCc1cnc(-c2ccc3occc3c2)c(N2CCC(C(=O)O)CC2)n1` [Compound 134, 1-(3-(benzofuran-5-yl)-6-(3,3-difluorobutyl)pyrazin-2-yl)piperidine-4-carboxylic acid]: the IC50 was under 0.5 µM.

Turning to `CC(F)(F)CCc1cnc(-c2ccc3c(c2)CCO3)c(N2CCC(C(=O)O)CC2)n1` [Compound 135, 1-(6-(3,3-difluorobutyl)-3-(2,3-dihydrobenzofuran-5-yl)pyrazin-2-yl)piperidine-4-carboxylic acid], the half-inhibitory concentration (IC50) lay in the range of 0.5 to 2 µM.

Take `CC(F)(F)CCc1cnc(-c2ccc3c(c2)OCO3)c(N2CCC(C(=O)O)CC2)n1` [Compound 136]: the IC50 is under 0.5 µM.

As to `COCCOc1ccc(-c2ncc(CCC(C)(F)F)nc2N2CCC(C(=O)O)CC2)cc1` [Compound 137, 1-(6-(3,3-difluorobutyl)-3-(4-(2-methoxyethoxy)phenyl)pyrazin-2-yl)piperidine-4-carboxylic acid], the IC50 fell in the range of 0.5 to 2 µM.

Take `COCCCCc1cnc(-c2ccc3occc3c2)c(N2CCC(C(=O)O)CC2)n1` [Compound 138, 1-(3-(benzofuran-5-yl)-6-(4-methoxybutyl)pyrazin-2-yl)piperidine-4-carboxylic acid]: the IC50 is under 0.5 µM.

For `COCCCCc1cnc(-c2ccc3c(c2)CCO3)c(N2CCC(C(=O)O)CC2)n1` [Compound 139, 1-(3-(2,3-dihydrobenzofuran-5-yl)-6-(4-methoxybutyl)pyrazin-2-yl)piperidine-4-carboxylic acid], the IC50 is under 0.5 µM.

Turning to `COCCCCc1cnc(-c2ccc3c(c2)OCO3)c(N2CCC(C(=O)O)CC2)n1` [Compound 140, 1-(3-(benzo[d][1,3]dioxol-5-yl)-6-(4-methoxybutyl)pyrazin-2-yl)piperidine-4-carboxylic acid], the IC50 was under 0.5 µM.

As for `COCCCCc1cnc(-c2ccc(OCCOC)cc2)c(N2CCC(C(=O)O)CC2)n1` [Compound 141, 1-(6-(4-methoxybutyl)-3-(4-(2-methoxyethoxy)phenyl)pyrazin-2-yl)piperidine-4-carboxylic acid], the IC50 was under 0.5 µM.

On to `O=C(O)C1CCN(c2nc(CCCC(F)F)cnc2-c2ccc3occc3c2)CC1` [Compound 142, 1-(3-(benzofuran-5-yl)-6-(4,4-difluorobutyl)pyrazin-2-yl)piperidine-4-carboxylic acid], for which the IC50 is under 0.5 µM.

Take `O=C(O)C1CCN(c2nc(CCCC(F)F)cnc2-c2ccc3c(c2)CCO3)CC1` [Compound 143, 1-(6-(4,4-difluorobutyl)-3-(2,3-dihydrobenzofuran-5-yl)pyrazin-2-yl)piperidine-4-carboxylic acid]: the IC50 was under 0.5 µM.

On to `O=C(O)C1CCN(c2nc(CCCC(F)F)cnc2-c2ccc3c(c2)OCO3)CC1` [Compound 144, 1-(3-(benzo[d][1,3]dioxol-5-yl)-6-(4,4-difluorobutyl)pyrazin-2-yl)piperidine-4-carboxylic acid], for which the IC50 was under 0.5 µM.

For `COCCOc1ccc(-c2ncc(CCCC(F)F)nc2N2CCC(C(=O)O)CC2)cc1` [Compound 145, 1-(6-(4,4-difluorobutyl)-3-(4-(2-methoxyethoxy)phenyl)pyrazin-2-yl)piperidine-4-carboxylic acid], the IC50 is under 0.5 µM.

Take `O=c1[nH]c(C2CCN(c3nc(CCC(F)(F)F)cnc3-c3cc(F)c4occc4c3)CC2)no1` [Compound 146, 3-(1-(3-(7-fluorobenzofuran-5-yl)-6-(3,3,3-trifluoropropyl)pyrazin-2-yl)piperidin-4-yl)-1,2,4-oxadiazol-5(4H)-one]: the IC50 is under 0.5 µM.

Take `CCCCCc1cnc(-c2cc(F)c3occc3c2)c(N2CCC(C(=O)O)CC2)n1` [Compound 147, 1-(3-(7-fluorobenzofuran-5-yl)-6-pentylpyrazin-2-yl)piperidine-4-carboxylic acid]: the half-maximal inhibitory concentration (IC50) is under 0.5 µM.

Regarding `CCC(F)(F)Cc1cnc(-c2ccc(OCCOC)cc2)c(N2CCC(C(=O)O)CC2)n1` [Compound 148, 1-(6-(2,2-difluorobutyl)-3-(4-(2-methoxyethoxy)phenyl)pyrazin-2-yl)piperidine-4-carboxylic acid], the IC50 was over 2 µM.

Staying with this assay, now noted: 60 minute assay; HEK293T cells stably expressing GLUT9B and transiently A. oryzae uricase; uric acid 0.3 mM, 37° C.; read-out: 60 min IC50.
In the case of `COCCCCc1cnc(-c2ccc3occc3c2)c(N2CCC(C(=O)O)CC2)n1` [Compound 138, 1-(3-(benzofuran-5-yl)-6-(4-methoxybutyl)pyrazin-2-yl)piperidine-4-carboxylic acid], the IC50 was under 0.5 µM.

In the case of `O=C(O)C1CCN(c2nc(CCCC(F)F)cnc2-c2ccc3occc3c2)CC1` [Compound 142, 1-(3-(benzofuran-5-yl)-6-(4,4-difluorobutyl)pyrazin-2-yl)piperidine-4-carboxylic acid], the IC50 is under 0.5 µM.
